Data taken from PubChem BioAssay (NCI).
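1) Cells in 96-well plates. 2) Compound, 48 h, 5 concentrations. 3) Linear interpolation between surrounding doses. 4) Unreached endpoint = highest concentration. At the GI50, growth is halved. TGI denotes the concentration required for complete inhibition of growth.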

What was measured:
Test in all cases: NCI tumour cell line growth inhibition, 48 h
M14 melanoma = system: M14 melanoma
HCT-15 colon = system: HCT-15 colon
SW-620 colon = system: SW-620 colon
786-0 renal = system: 786-0 renal
HS 578T breast = system: HS 578T breast
IGROV1 ovarian = system: IGROV1 ovarian
MDA-MB-231 breast = system: MDA-MB-231 breast
SF-539 CNS = system: SF-539 CNS
SNB-75 CNS = system: SNB-75 CNS
CAKI-1 renal = system: CAKI-1 renal
HCT-116 colon = system: HCT-116 colon
KM12 colon = system: KM12 colon
OVCAR-5 ovarian = system: OVCAR-5 ovarian
UACC-257 melanoma = system: UACC-257 melanoma
SK-MEL-5 melanoma = system: SK-MEL-5 melanoma
DU-145 prostate = system: DU-145 prostate
NCI/ADR-RES ovarian = system: NCI/ADR-RES ovarian
SNB-19 CNS = system: SNB-19 CNS
MCF7 breast = system: MCF7 breast
SF-295 CNS = system: SF-295 CNS
NCI-H460 lung = system: NCI-H460 lung
HCC-2998 colon = system: HCC-2998 colon
K-562 leukemia = system: K-562 leukemia
U251 CNS = system: U251 CNS
TK-10 renal = system: TK-10 renal
OVCAR-4 ovarian = system: OVCAR-4 ovarian
A549 NSCLC = system: A549 NSCLC

Compound `NC(N)=Nc1ccc(Oc2cccc(NC(N)=Nc3ccc(Cl)c(C(F)(F)F)c3)c2)cn1` has a GI50 (M14 melanoma) of 3.22 µM, a TGI (M14 melanoma) of 19.3 µM and a GI50 (HCT-15 colon) of 19.6 µM. For the same compound, the TGI (HCT-15 colon) was 67.6 µM, the GI50 (SW-620 colon) was 1.94 µM and the TGI (SW-620 colon) was 4.83 µM. The GI50 (786-0 renal) was 4.83 µM, the TGI (786-0 renal) was 24.8 µM and the GI50 (HS 578T breast) was 1.78 µM. For the same compound, the TGI (HS 578T breast) was 4.63 µM, the GI50 (IGROV1 ovarian) was 1.07 µM and the TGI (IGROV1 ovarian) was 2.51 µM. The GI50 (MDA-MB-231 breast) was 1.99 µM, the TGI (MDA-MB-231 breast) was 5.23 µM and the GI50 (SF-539 CNS) was 1.54 µM. For the same compound, the TGI (SF-539 CNS) was 3.01 µM, the GI50 (SNB-75 CNS) was 0.515 µM and the TGI (SNB-75 CNS) was 2.92 µM. It also gave a GI50 (CAKI-1 renal) of 3.29 µM, a TGI (CAKI-1 renal) of 17.4 µM and a GI50 (HCT-116 colon) of 1.73 µM. The TGI (HCT-116 colon) was 4.86 µM, the GI50 (KM12 colon) was 1.47 µM and the TGI (KM12 colon) was 2.9 µM. For the same compound, the GI50 (OVCAR-5 ovarian) was 1.89 µM, the TGI (OVCAR-5 ovarian) was 5.73 µM and the GI50 (UACC-257 melanoma) was 2.87 µM. The TGI (UACC-257 melanoma) was 12.8 µM, the GI50 (SK-MEL-5 melanoma) was 2.53 µM and the TGI (SK-MEL-5 melanoma) was 6.94 µM. For the same compound, the GI50 (DU-145 prostate) was 2.22 µM, the TGI (DU-145 prostate) was 5.27 µM and the GI50 (NCI/ADR-RES ovarian) was 40.5 µM. For the same compound, the TGI (NCI/ADR-RES ovarian) was greater than 100 µM, the GI50 (SNB-19 CNS) was 1.28 µM and the TGI (SNB-19 CNS) was 2.68 µM. The GI50 (MCF7 breast) was 1.24 µM, the TGI (MCF7 breast) was 3.01 µM and the GI50 (SF-295 CNS) was 2.08 µM. For the same compound, the TGI (SF-295 CNS) was 7.97 µM, the GI50 (NCI-H460 lung) was 1.48 µM and the TGI (NCI-H460 lung) was 3.6 µM. For the same compound, the GI50 (HCC-2998 colon) was 1.67 µM, the TGI (HCC-2998 colon) was 3.37 µM and the GI50 (K-562 leukemia) was 1.51 µM. For the same compound, the TGI (K-562 leukemia) was 10.6 µM, the GI50 (U251 CNS) was 1.26 µM and the TGI (U251 CNS) was 2.83 µM. It also gave a GI50 (TK-10 renal) of 4.35 µM, a TGI (TK-10 renal) of 21.7 µM and a GI50 (OVCAR-4 ovarian) of 2.53 µM. For the same compound, the TGI (OVCAR-4 ovarian) was 9.36 µM, the GI50 (A549 NSCLC) was 1.91 µM and the TGI (A549 NSCLC) was 17.4 µM.
